Test results from the CheMixHub viscosity set.
± gives the uncertainty stated by the source.

Test: xn = mol fraction of the nth substance listed

OC(c1ccccc1)c1ccccc1 + CCCCCOC(C)=O
Details	viscosity [mPa·s]
298.15 K, 101 kPa, x2 = 0.5	1.496 ± 0.015

COCCO + c1ccccc1
viscosity [mPa·s]
Details	298.15 K	303.15 K	308.15 K
101 kPa, x1 = 0.0543	0.624 ± 0.011	–	0.541 ± 0.01
101 kPa, x1 = 0.1499	0.669 ± 0.012	–	0.571 ± 0.011
101 kPa, x1 = 0.2235	0.708 ± 0.013	–	0.598 ± 0.011
101 kPa, x1 = 0.3508	0.788 ± 0.014	–	0.654 ± 0.012
101 kPa, x1 = 0.4496	0.862 ± 0.015	–	0.707 ± 0.013
101 kPa, x1 = 0.4961	0.902 ± 0.015	–	0.735 ± 0.013
101 kPa, x1 = 0.5462	0.947 ± 0.016	–	0.768 ± 0.013
101 kPa, x1 = 0.6455	1.049 ± 0.018	–	0.842 ± 0.015
101 kPa, x1 = 0.7524	1.18 ± 0.019	–	0.938 ± 0.016
101 kPa, x1 = 0.8509	1.323 ± 0.022	–	1.043 ± 0.018
101 kPa, x1 = 0.9558	1.505 ± 0.024	–	1.177 ± 0.02
101.33 kPa, x1 = 0.1174	–	0.599 ± 0.008	–
101.33 kPa, x1 = 0.1933	–	0.628 ± 0.009	–
101.33 kPa, x1 = 0.2642	–	0.659 ± 0.009	–
101.33 kPa, x1 = 0.3837	–	0.728 ± 0.01	–
101.33 kPa, x1 = 0.4988	–	0.807 ± 0.011	–
101.33 kPa, x1 = 0.654	–	0.945 ± 0.012	–
101.33 kPa, x1 = 0.7474	–	1.049 ± 0.013	–
101.33 kPa, x1 = 0.843	–	1.188 ± 0.015	–
101.33 kPa, x1 = 0.8998	–	1.246 ± 0.016	–

CCOC(=O)C(=O)OCC + CCCCCCCCO
303.15 K, 101.33 kPa
Details	viscosity [mPa·s]
x1 = 0.0949	4.702 ± 0.027
x1 = 0.2003	3.667 ± 0.021
x1 = 0.2883	3.152 ± 0.019
x1 = 0.4	2.636 ± 0.016
x1 = 0.5026	2.296 ± 0.014
x1 = 0.6064	2.027 ± 0.012
x1 = 0.6984	1.86 ± 0.011
x1 = 0.7809	1.74 ± 0.011
x1 = 0.8763	1.638 ± 0.01

CCCC(=O)O + C1COCO1
298.15 K, 101 kPa
Details	viscosity [mPa·s]
x2 = 0.2292	1.358 ± 0.011
x2 = 0.3376	1.288 ± 0.011
x2 = 0.5433	1.098 ± 0.0093
x2 = 0.6408	0.9928 ± 0.0084
x2 = 0.7351	0.8845 ± 0.0075
x2 = 0.8263	0.7758 ± 0.0066
x2 = 0.9146	0.6775 ± 0.0058

CCCCBr + CCCCO
viscosity [mPa·s], 101.33 kPa
Details	x2 = 0.1114	x2 = 0.2168	x2 = 0.3241	x2 = 0.4255	x2 = 0.5172	x2 = 0.6158	x2 = 0.7127	x2 = 0.7911	x2 = 0.8968
298.15 K	0.63 ± 0.009	0.685 ± 0.009	0.759 ± 0.01	0.86 ± 0.011	0.983 ± 0.013	1.158 ± 0.014	1.394 ± 0.017	1.636 ± 0.02	2.046 ± 0.024
308.15 K	0.554 ± 0.008	0.588 ± 0.008	0.638 ± 0.009	0.706 ± 0.009	0.793 ± 0.01	0.918 ± 0.012	1.086 ± 0.013	1.261 ± 0.015	1.581 ± 0.019
318.15 K	0.495 ± 0.007	0.522 ± 0.008	0.561 ± 0.008	0.613 ± 0.008	0.679 ± 0.009	0.771 ± 0.01	0.899 ± 0.011	1.029 ± 0.013	1.264 ± 0.015

COCCO + CC#N
298 K, 101.33 kPa
Details	viscosity [mPa·s]
x1 = 0.097	0.391 ± 0.007
x1 = 0.1987	0.455 ± 0.007
x1 = 0.2949	0.529 ± 0.008
x1 = 0.404	0.631 ± 0.009
x1 = 0.4985	0.736 ± 0.01
x1 = 0.5987	0.866 ± 0.011
x1 = 0.6932	0.991 ± 0.013
x1 = 0.7991	1.171 ± 0.015
x1 = 0.9035	1.361 ± 0.017

CCOC(=O)C(=O)OCC + CCCCO
303.15 K, 101.33 kPa
Details	viscosity [mPa·s]
x1 = 0.1064	1.803 ± 0.011
x1 = 0.1924	1.613 ± 0.01
x1 = 0.2954	1.496 ± 0.009
x1 = 0.3832	1.438 ± 0.009
x1 = 0.5033	1.405 ± 0.009
x1 = 0.6097	1.405 ± 0.009
x1 = 0.6734	1.419 ± 0.009
x1 = 0.7804	1.461 ± 0.009
x1 = 0.9074	1.556 ± 0.01

CCCC(C)O (stereo not given) + CCCCOC(C)=O
viscosity [mPa·s], 100 kPa
Details	x2 = 0.0809	x2 = 0.1601	x2 = 0.2399	x2 = 0.3501	x2 = 0.44	x2 = 0.56	x2 = 0.65	x2 = 0.7398	x2 = 0.85	x2 = 0.9399
293.15 K	2.506 ± 0.3	1.64 ± 0.2	1.205 ± 0.14	0.917 ± 0.11	0.797 ± 0.096	0.724 ± 0.087	0.703 ± 0.085	0.685 ± 0.082	0.684 ± 0.082	0.7 ± 0.08
298.15 K	2.253 ± 0.27	1.525 ± 0.18	1.121 ± 0.14	0.853 ± 0.1	0.744 ± 0.09	0.668 ± 0.08	0.656 ± 0.079	0.644 ± 0.078	0.644 ± 0.078	0.656 ± 0.079
303.15 K	2.018 ± 0.24	1.419 ± 0.17	1.05 ± 0.13	0.805 ± 0.097	0.688 ± 0.083	0.62 ± 0.07	0.605 ± 0.073	0.6 ± 0.07	0.599 ± 0.072	0.618 ± 0.074
308.15 K	1.688 ± 0.2	1.227 ± 0.15	0.926 ± 0.11	0.704 ± 0.085	0.616 ± 0.074	0.56 ± 0.07	0.546 ± 0.066	0.537 ± 0.065	0.548 ± 0.066	0.566 ± 0.068
313.15 K	1.407 ± 0.17	1.016 ± 0.12	0.775 ± 0.093	0.619 ± 0.075	0.548 ± 0.066	0.504 ± 0.061	0.488 ± 0.059	0.48 ± 0.06	0.496 ± 0.06	0.52 ± 0.06
318.15 K	1.139 ± 0.14	0.816 ± 0.098	0.614 ± 0.074	0.497 ± 0.06	0.455 ± 0.055	0.424 ± 0.051	0.416 ± 0.05	0.421 ± 0.051	0.448 ± 0.054	0.476 ± 0.057
323.15 K	0.874 ± 0.11	0.6 ± 0.07	0.438 ± 0.053	0.365 ± 0.044	0.343 ± 0.041	0.338 ± 0.041	0.341 ± 0.041	0.358 ± 0.043	0.391 ± 0.047	0.432 ± 0.052

COCCO + CO
viscosity [mPa·s]
Details	298.15 K	308.15 K	318.15 K
101 kPa, x1 = 0.04469	0.6045 ± 0.061	0.5088 ± 0.051	0.4575 ± 0.046
101 kPa, x1 = 0.09523	0.6714 ± 0.067	0.536 ± 0.054	0.469 ± 0.047
101 kPa, x1 = 0.1529	0.7467 ± 0.075	–	0.4955 ± 0.05
101 kPa, x1 = 0.2192	0.8508 ± 0.085	0.6249 ± 0.063	0.5383 ± 0.054
101 kPa, x1 = 0.2963	0.9698 ± 0.097	0.6991 ± 0.07	0.6017 ± 0.06
101 kPa, x1 = 0.3871	1.085 ± 0.11	0.7594 ± 0.076	0.6484 ± 0.065
101 kPa, x1 = 0.4956	1.19 ± 0.12	0.8407 ± 0.084	0.7649 ± 0.077
101 kPa, x1 = 0.6274	1.299 ± 0.13	0.9321 ± 0.093	0.8436 ± 0.085
101 kPa, x1 = 0.7912	1.419 ± 0.14	1.058 ± 0.11	0.9667 ± 0.097
101.33 kPa, x1 = 0.1175	–	0.569 ± 0.005	–
101.33 kPa, x1 = 0.2098	–	0.64 ± 0.006	–
101.33 kPa, x1 = 0.3143	–	0.717 ± 0.006	–
101.33 kPa, x1 = 0.4866	–	0.844 ± 0.007	–
101.33 kPa, x1 = 0.6126	–	0.93 ± 0.008	–
101.33 kPa, x1 = 0.762	–	1.036 ± 0.009	–
101.33 kPa, x1 = 0.8201	–	1.074 ± 0.009	–
101.33 kPa, x1 = 0.9101	–	1.13 ± 0.01	–

COCCO + NCCO
viscosity [mPa·s], 101.3 kPa
Details	x2 = 0.122	x2 = 0.348	x2 = 0.916
298.15 K	2.065 ± 0.086	3.765 ± 0.16	–
308.15 K	–	–	10.55 ± 0.44
